According to the NIST ThermoML archive (doi:10.1021/je400486p):

Assay: refractive index (Na D-line) (dimensionless); xn = mol fraction of the nth substance listed
Conditions: 101.3 kPa, Liquid, Standard Abbe refractometry

COCCOCCOCCOCCOC [2,5,8,11,14-pentaoxapentadecane] + CCC(C)O
refractive index
Conditions	x2 = 0	x2 = 0.1007	x2 = 0.2003	x2 = 0.3015	x2 = 0.3991	x2 = 0.5011	x2 = 0.6024	x2 = 0.6997	x2 = 0.7998	x2 = 0.9004
288.15 K	1.4345	1.43266	1.43063	1.42851	1.42627	1.42333	1.41994	1.41632	1.41171	1.40624
293.15 K	1.43238	1.43054	1.42851	1.42637	1.42412	1.42118	1.41778	1.41418	1.4096	1.40412
298.15 K	1.43027	1.42843	1.42637	1.42424	1.42197	1.41902	1.41562	1.41202	1.40743	1.40197
303.15 K	1.42815	1.42631	1.42424	1.4221	1.41983	1.41687	1.41347	1.40983	1.40522	1.39977
308.15 K	1.42603	1.4242	1.42212	1.41998	1.41768	1.41473	1.41133	1.40765	1.40302	1.39751
313.15 K	1.42394	1.42209	1.42001	1.41785	1.4155	1.41255	1.40915	1.40543	1.40077	1.39524
318.15 K	1.42183	1.42003	1.4179	1.41571	1.41339	1.41039	1.40698	1.40327	1.39857	1.393
323.15 K	1.41973	1.41794	1.4158	1.4136	1.41127	1.40823	1.40477	1.40104	1.39628	1.39067

CN1CCCC1=O [N-methylpyrrolidone] + CCC(C)O
refractive index
Conditions	x2 = 0	x2 = 0.1049	x2 = 0.2001	x2 = 0.3009	x2 = 0.4019	x2 = 0.5003	x2 = 0.5995	x2 = 0.7004	x2 = 0.7985	x2 = 0.899
288.15 K	1.47166	1.46489	1.45851	1.45151	1.44431	1.43715	1.42982	1.42227	1.41487	1.40724
293.15 K	1.46952	1.46273	1.45634	1.44937	1.44219	1.43504	1.42772	1.42016	1.41275	1.40512
298.15 K	1.46736	1.46061	1.45418	1.4473	1.44013	1.43298	1.42564	1.41806	1.41063	1.40302
303.15 K	1.4652	1.45844	1.45203	1.44515	1.43799	1.43083	1.42349	1.41587	1.40842	1.40081
308.15 K	1.46306	1.45632	1.44987	1.44301	1.43583	1.42867	1.42131	1.41372	1.40626	1.39861
313.15 K	1.46095	1.45416	1.44773	1.44083	1.43366	1.42651	1.41919	1.41155	1.40406	1.39638
318.15 K	1.45891	1.45204	1.44559	1.43868	1.43152	1.42436	1.41701	1.40934	1.40181	1.39408
323.15 K	1.4568	1.44996	1.4435	1.43654	1.42934	1.42215	1.41481	1.40711	1.39955	1.39172
